Results reported in patent publication US20220370468A1, “Methods of treating sleep disorders associated with pain” (Astellas Pharma Global Development, Inc., priority 2019, published 2022).

System: patients with fibromyalgia
Test: Phase 2a study: daily fibromyalgia sleep diary (FMSD)
Type: in vivo, human
Conditions: for Degree of being rested when waking up for the day, change from baseline, LS Mean (SE) / Degree of deep sleep, change from baseline, LS Mean (SE) / Degree of having enough sleep during the previous night, change from baseline, LS Mean (SE) / Difficulty getting comfortable, change from baseline, LS Mean (SE) / Difficulty staying asleep, change from baseline, LS Mean (SE) / Difficulty with beginning the day, change from baseline, LS Mean (SE) / Difficulty with falling asleep, change from baseline, LS Mean (SE) / Restlessness of sleep, change from baseline, LS Mean (SE): FAS, 15 mg
From the text: In some embodiments, the clinical score is a score for one or more FMSD (fibromyalgia sleep diary) items. The FMSD (Kleinman et al., 2014) is a validated 8-item patient-reported outcome that assesses sleep disturbances specific to patients with fibromyalgia across the domains of falling asleep, staying asleep, and sufficient sleep (Kleinman et al., 2014). Each day upon waking, patients rated their sleep quality over the previous night on an 11-point numerical integer rating scale (NRS). Each item is rated on an 11-point NRS, ranging from 0, which corresponds to “not at all”, to 10, which corresponds to “extremely.” FMSD items include: • difficulty with falling asleep (improvement shown as a decrease in measurement); • restlessness of sleep (improvement shown as a decrease in measurement); • difficulty getting comfortable (improvement shown as a decrease in measurement); • difficulty staying asleep (improvement shown as a decrease in measurement); • degree of deep sleep (improvement shown as an increase in measurement); • degree of being rested when waking up for the day (improvement shown as an increase in measurement); • difficulty with beginning the day (improvement shown as a decrease in measurement); and • degree of having enough sleep during the previous night (improvement shown as an increase in measurement). A phase 2a, randomized, double-blind, placebo-controlled, parallel group study was conducted at 24 sites in the United States to assess the analgesic efficacy and safety of the compound of Formula (I) in patients with fibromyalgia. The study consisted of the following: a screening period of up to 42 days, which included a washout period and a 7-day baseline diary run-in; a 57-day double-blind randomized treatment period with site visits at Days 1, 15, 29, and 57; and a 4-week follow-up period consisting of a clinic visit after 2 weeks and a phone call after 4 weeks. The study was carried out in accordance with the Declaration of Helsinki and approved by the relevant Institutional Review Boards. All participants provided written informed consent prior to the initiation of any study procedures. Male and female patients aged 18 to 80 years were included in the trial if they met the American College of Rheumatology (ACR) 1990 and 2010 fibromyalgia diagnostic criteria at screening (Wolfe et al., 1990; Wolfe et al., 2010b). The core diagnostic criteria for fibromyalgia are defined by the 1990 criteria (Wolfe et al., 1990), and while ACR has published newer criteria, the 1990 version is still commonly utilized in clinical trials. To meet ACR 1990 criteria, patients must have had widespread pain for at least 3 months, defined as the presence of pain on the right and left sides of the body, pain above and below the waist, and pain in the axial skeleton (cervical spine, anterior chest, thoracic spine, or low back) (Wolfe et al., 1990). They must also have had pain in at least 11 of 18 tender point sites on digital palpation performed with an approximate force of 4 kg. To meet the ACR 2010 criteria, patients needed to have a widespread pain index (WPI) score of ≥7 and a symptom severity (SS) scale score ≥5, or a WPI score 3-6 and an SS scale score ≥9 (Wolfe et al., 2010b). Symptoms must have been present at a similar level for at least 3 months and patients must have been free of any other disorder that could have explained the pain. […] Eligible patients were randomized 1:1 using Interactive Response Technology to receive oral Compound of Formula (I) 15 mg (three capsules of 5 mg) or matching placebo capsules, each given once daily in the morning, with or without food, for 8 weeks. Sleep disturbance was assessed as an exploratory endpoint using change from baseline to each respective week (Weeks 1-8) and from baseline to EOT in daily fibromyalgia sleep diary (FMSD) responses (Kleinman et al., 2014). […]

Structure (SMILES): Cc1sc2cc(Cl)ccc2c1-c1ccc(N2CCO[C@H](CNC3CCC3)C2)c(C(=O)O)c1 [Compound of Formula (I)]
- Difficulty with falling asleep, Treatment Difference (SE) (Compound of Formula (I) - placebo) (EOT (LOCF), ANCOVA, 1-sided p 0.008): −0.61 (0.25)
- Restlessness of sleep, Treatment Difference (SE) (Compound of Formula (I) - placebo) (EOT (LOCF), ANCOVA, 1-sided p 0.009): −0.56 (0.23)
- Difficulty with beginning the day, Treatment Difference (SE) (Compound of Formula (I) - placebo) (EOT (LOCF), ANCOVA, 1-sided p 0.044): −0.42 (0.25)
- Difficulty getting comfortable, Treatment Difference (SE) (Compound of Formula (I) - placebo) (EOT (LOCF), ANCOVA, 1-sided p 0.054): −0.35 (0.22)
- Degree of having enough sleep during the previous night, Treatment Difference (SE) (Compound of Formula (I) - placebo) (EOT (LOCF), ANCOVA, 1-sided p 0.100): 0.32 (0.25)
- Difficulty staying asleep, Treatment Difference (SE) (Compound of Formula (I) - placebo) (EOT (LOCF), ANCOVA, 1-sided p 0.158): −0.22 (0.22)
- Degree of deep sleep, Treatment Difference (SE) (Compound of Formula (I) - placebo) (EOT (LOCF), ANCOVA, 1-sided p 0.240): 0.16 (0.22)
- Degree of being rested when waking up for the day, Treatment Difference (SE) (Compound of Formula (I) - placebo) (EOT (LOCF), ANCOVA, 1-sided p 0.337): 0.10 (0.24)
- Degree of being rested when waking up for the day, change from baseline, LS Mean (SE) (EOT (LOCF), ANCOVA): 0.78 (0.17)
- Degree of deep sleep, change from baseline, LS Mean (SE) (EOT (LOCF), ANCOVA): 0.60 (0.16)
- Degree of having enough sleep during the previous night, change from baseline, LS Mean (SE) (EOT (LOCF), ANCOVA): 1.09 (0.18)
- Difficulty getting comfortable, change from baseline, LS Mean (SE) (EOT (LOCF), ANCOVA): −1.27 (0.16)
- Difficulty staying asleep, change from baseline, LS Mean (SE) (EOT (LOCF), ANCOVA): −1.08 (0.16)
- Difficulty with beginning the day, change from baseline, LS Mean (SE) (EOT (LOCF), ANCOVA): −0.91 (0.18)
- Difficulty with falling asleep, change from baseline, LS Mean (SE) (EOT (LOCF), ANCOVA): −1.41 (0.18)
- Restlessness of sleep, change from baseline, LS Mean (SE) (EOT (LOCF), ANCOVA): −1.50 (0.17)
- Difficulty with falling asleep, Treatment Difference (SE) (Compound of Formula (I) - placebo) (Week 8, MMRM, 1-sided p 0.018): −0.56 (0.26)
- Restlessness of sleep, Treatment Difference (SE) (Compound of Formula (I) - placebo) (Week 8, MMRM, 1-sided p 0.033): −0.48 (0.26)
- Difficulty with beginning the day, Treatment Difference (SE) (Compound of Formula (I) - placebo) (Week 8, MMRM, 1-sided p 0.070): −0.39 (0.26)
- Degree of having enough sleep during the previous night, Treatment Difference (SE) (Compound of Formula (I) - placebo) (Week 8, MMRM, 1-sided p 0.131): 0.30 (0.27)
- Difficulty getting comfortable, Treatment Difference (SE) (Compound of Formula (I) - placebo) (Week 8, MMRM, 1-sided p 0.167): −0.23 (0.23)
- Difficulty staying asleep, Treatment Difference (SE) (Compound of Formula (I) - placebo) (Week 8, MMRM, 1-sided p 0.275): −0.14 (0.24)
- Degree of deep sleep, Treatment Difference (SE) (Compound of Formula (I) - placebo) (Week 8, MMRM, 1-sided p 0.331): 0.11 (0.24)
- Degree of being rested when waking up for the day, Treatment Difference (SE) (Compound of Formula (I) - placebo) (Week 8, MMRM, 1-sided p 0.432): 0.04 (0.25)
- Degree of being rested when waking up for the day, change from baseline, LS Mean (SE) (Week 8, MMRM): 0.74 (0.18)
- Degree of deep sleep, change from baseline, LS Mean (SE) (Week 8, MMRM): 0.55 (0.17)
- Degree of having enough sleep during the previous night, change from baseline, LS Mean (SE) (Week 8, MMRM): 1.10 (0.19)
- Difficulty getting comfortable, change from baseline, LS Mean (SE) (Week 8, MMRM): −1.24 (0.17)
- Difficulty staying asleep, change from baseline, LS Mean (SE) (Week 8, MMRM): −1.09 (0.17)
- Difficulty with beginning the day, change from baseline, LS Mean (SE) (Week 8, MMRM): −0.89 (0.19)
- Difficulty with falling asleep, change from baseline, LS Mean (SE) (Week 8, MMRM): −1.46 (0.19)
- Restlessness of sleep, change from baseline, LS Mean (SE) (Week 8, MMRM): −1.53 (0.19)
- FMSD difficulty with falling asleep versus placebo (beginning at Week 2, P=0.032): Statistically significant improvements
- FMSD difficulty getting comfortable versus placebo (beginning at Week 3, P=0.007): Statistically significant improvements
- FMSD difficulty staying asleep versus placebo (beginning at Week 3, P=0.013): Statistically significant improvements
- FMSD restlessness of sleep versus placebo (beginning at Week 3, P=0.013): Statistically significant improvements
- FMSD degree of deep sleep versus placebo (beginning at Week 6, P=0.035): Statistically significant improvements
- FMSD difficulty with beginning the day versus placebo (beginning at Week 6, P=0.040): Statistically significant improvements
